The values below come from US11236046B2, “Substituted heterocyclic sulfonamide compounds useful as TRPA1 modulators” (Genentech, Inc., priority 2013, dated 2022).

Structures are written as SMILES.

Broadly, the IC50 is the point on the concentration scale where inhibition reaches its midpoint.

Chain of human TRPA1 (O75762 whole entry): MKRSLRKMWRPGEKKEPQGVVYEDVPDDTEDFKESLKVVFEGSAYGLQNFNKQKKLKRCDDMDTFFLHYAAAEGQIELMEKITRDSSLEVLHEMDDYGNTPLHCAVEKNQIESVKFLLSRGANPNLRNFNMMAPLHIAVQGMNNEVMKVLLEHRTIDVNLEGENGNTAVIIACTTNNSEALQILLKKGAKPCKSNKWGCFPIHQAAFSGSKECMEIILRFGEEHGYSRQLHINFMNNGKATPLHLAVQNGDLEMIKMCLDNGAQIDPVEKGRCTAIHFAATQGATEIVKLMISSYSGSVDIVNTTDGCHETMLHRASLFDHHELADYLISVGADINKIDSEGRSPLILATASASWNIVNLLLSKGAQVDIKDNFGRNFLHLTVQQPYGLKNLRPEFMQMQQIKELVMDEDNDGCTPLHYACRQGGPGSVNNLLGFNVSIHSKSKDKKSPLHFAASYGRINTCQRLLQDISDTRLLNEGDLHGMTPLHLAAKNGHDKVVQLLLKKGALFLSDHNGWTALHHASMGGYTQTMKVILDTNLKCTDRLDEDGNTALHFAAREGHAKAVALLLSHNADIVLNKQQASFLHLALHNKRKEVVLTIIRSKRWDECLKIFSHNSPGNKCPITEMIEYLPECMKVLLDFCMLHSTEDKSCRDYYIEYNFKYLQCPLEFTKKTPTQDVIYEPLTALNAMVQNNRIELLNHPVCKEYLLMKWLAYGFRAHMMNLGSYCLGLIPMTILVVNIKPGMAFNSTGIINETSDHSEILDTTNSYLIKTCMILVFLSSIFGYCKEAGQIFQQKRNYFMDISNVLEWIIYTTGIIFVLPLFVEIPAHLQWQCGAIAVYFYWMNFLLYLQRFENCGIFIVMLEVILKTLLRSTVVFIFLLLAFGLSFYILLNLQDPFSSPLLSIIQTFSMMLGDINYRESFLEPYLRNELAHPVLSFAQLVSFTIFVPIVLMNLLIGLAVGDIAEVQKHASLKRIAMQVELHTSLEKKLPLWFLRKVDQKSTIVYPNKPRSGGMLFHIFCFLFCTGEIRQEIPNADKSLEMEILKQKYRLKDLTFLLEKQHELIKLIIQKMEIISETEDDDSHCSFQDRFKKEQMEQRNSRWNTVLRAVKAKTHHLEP

The assay concerns the target human TRPA1 (Homo sapiens (Human), UniProt O75762). Put plainly: FLIPR Tetra calcium influx assay, block of cinnamaldehyde-induced calcium influx in CHO cells expressing TRPA1 (human). The assay is classed as cell-based. The following applies: 20 min compound incubation, 75 uM cinnamaldehyde (~EC80), Hill coefficient fixed to 1.5, read-out: hTRPA1 AUC IC50. The procedure, abridged: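 CHO cells loaded with calcium dye, preincubated with compounds 20 min at room temperature in HBSS/20 mM HEPES pH 7.4 with 0.02% BSA. Channels activated by ~EC80 cinnamaldehyde (75 uM human, 45 uM rat); block of calcium influx read on FLIPR Tetra, IC50 fitted with fixed Hill coefficient.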
`O=C(NCc1cc([C@H]2CC[C@H](C(F)(F)F)CC2)ncn1)[C@@H]1C[C@@H](F)CN1S(=O)(=O)c1ccc(F)cc1` (single isomer, unassigned) [Example 149]: the IC50 was 34 nM.
With `O=C(NCc1cc(-c2ccc(C(F)(F)F)cc2F)ncn1)[C@@H]1C[C@@H](F)CN1S(=O)(=O)c1ccc(F)cc1` [Example 113, (2S,4R)-4-fluoro-N-((6-(2-fluoro-4-(trifluoromethyl)phenyl)pyrimidin-4-yl)methyl)-1-(4-fluorophenylsulfonyl)pyrrolidine-2-carboxamide], the half-inhibitory concentration (IC50) is 161 nM.
For `O=C(NCc1cc(-c2cnc(C(F)(F)F)nc2)ccc1F)[C@@H]1C[C@@H](F)CN1S(=O)(=O)c1ccc(F)cc1` [Example 56, (2S,4R)-4-fluoro-N-(2-fluoro-5-(2-(trifluoromethyl)pyrimidin-5-yl)benzyl)-1-((4-fluorophenyl)sulfonyl)pyrrolidine-2-carboxamide] the value was 11 nM.
Take `O=C(NCc1cc(-c2ccc(C(F)(F)F)nc2)ncn1)[C@@H]1CC2(CC2)CN1S(=O)(=O)c1ccc(F)cc1` [Example 80]: the IC50 stood at 44 nM.
For `O=C(NCc1cc(-c2ccc(C(F)(F)F)nc2)ncn1)C1C2CC(CC2F)N1S(=O)(=O)c1ccc(F)cc1` (stereo not drawn) [Example 51, 5-fluoro-2-(4-fluorophenyl)sulfonyl-N-[[6-[6-(trifluoromethyl)-3-pyridyl]pyrimidin-4-yl]methyl]-2-azabicyclo[2.2.1]heptane-3-carboxamide] the value was 52 nM; for `Cc1cc(-c2cnc(C(F)(F)F)nc2)cc(CNC(=O)[C@@H]2[C@@H](F)CCN2S(=O)(=O)c2ccc(F)cc2)n1` [Example 191, (2R,3S)-3-fluoro-1-[(4-fluorobenzene)sulfonyl]-N-([6-methyl-4-[2-(trifluoromethyl)pyrimidin-5-yl]pyridin-2-yl]methyl)pyrrolidine-2-carboxamide], 27 nM.
The value for `O=C(NCc1cc(-c2ccc(C(F)(F)F)nc2)ncn1)[C@@H]1[C@@H](F)CCN1S(=O)(=O)c1ccc(F)cc1` [Example 136, (2R,3S)-3-fluoro-1-(4-fluorophenylsulfonyl)-N-((6-(6-(trifluoromethyl)pyridin-3-yl)pyrimidin-4-yl)methyl)pyrrolidine-2-carboxamide] was 21 nM; that for `O=C(NCc1cc(-c2ccc(C(F)(F)F)nc2)nc(-c2ccc(C(F)(F)F)nc2)c1)[C@@H]1C[C@@H](F)CN1S(=O)(=O)c1ccc(F)cc1` [Example 83, (2S,4R)—N-[[2,6-bis[6-(trifluoromethyl)-3-pyridyl]-4-pyridyl]methyl]-4-fluoro-1-(4-fluorophenyl)sulfonyl-pyrrolidine-2-carboxamide] was 54.6 nM.
The value for `O=C(NCc1cc(F)cc(C2CCC(C(F)(F)F)CN2)c1)[C@@H]1C[C@@H](F)CN1S(=O)(=O)c1ccc(F)cc1` (stereo partly drawn) [Example 74, (2S,4R)-4-fluoro-1-(4-fluorophenyl)sulfonyl-N-[[3-fluoro-5-[5-(trifluoromethyl)-2-piperidyl]phenyl]methyl]pyrrolidine-2-carboxamide] was 192 nM.
Take `O=C(NCc1cc(-c2ccc(C(F)(F)F)nc2)ncn1)[C@@H]1C[C@@H](F)CN1S(=O)(=O)c1ccc(F)c(F)c1` [Example 156, (2S,4R)-1-(3,4-difluorophenylsulfonyl)-4-fluoro-N-((6-(6-(trifluoromethyl)pyridin-3-yl)pyrimidin-4-yl)methyl)pyrrolidine-2-carboxamide]: the half-inhibitory concentration (IC50) stood at 109 nM.
The value for `O=C(NCc1cc(-c2ccc(C(F)F)cc2)c(F)cn1)[C@@H]1C[C@@H](F)CN1S(=O)(=O)c1ccc(F)cc1` [Example 88, (2S,4R)—N-[[4-[4-(difluoromethyl)phenyl]-5-fluoro-2-pyridyl]methyl]-4-fluoro-1-(4-fluorophenyl)sulfonyl-pyrrolidine-2-carboxamide] was 41 nM; that for `O=C(NCc1cn(-c2ccc(C(F)(F)F)cc2)nc1Cl)[C@@H]1C[C@@H](F)CN1S(=O)(=O)c1ccc(F)cc1` [Example 137, (2S,4R)—N-([3-chloro-1-[4-(trifluoromethyl)phenyl]-1H-pyrazol-4-yl]methyl)-4-fluoro-1-[(4-fluorobenzene)sulfonyl]pyrrolidine-2-carboxamide] was 78 nM.
The value for `N#Cc1cnc(-c2cnc(C(F)(F)F)nc2)cc1CNC(=O)[C@@H]1C[C@@H](F)CN1S(=O)(=O)c1ccc(F)cc1` [Example 189, (2S,4R)—N-([5-cyano-2-[2-(trifluoromethyl)pyrimidin-5-yl]pyridin-4-yl]methyl)-4-fluoro-1-[(4-fluorobenzene)sulfonyl]pyrrolidine-2-carboxamide] was 55 nM; that for `O=C(NCc1cc(-c2ccc(C(F)(F)F)c(F)c2)ncn1)[C@@H]1[C@@H](F)CCN1S(=O)(=O)c1ccc(F)cc1` [Example 93, (2R,3S)-3-fluoro-N-((6-(3-fluoro-4-(trifluoromethyl)phenyl)pyrimidin-4-yl)methyl)-1-(4-fluorophenylsulfonyl)pyrrolidine-2-carboxamide] was 14 nM; that for `N#Cc1cnc(-c2ccc(C(F)(F)F)cc2)cc1CNC(=O)[C@@H]1C[C@@H](F)CN1S(=O)(=O)c1ccc(F)cc1` [Example 78, (2S,4R)—N-([5-cyano-2-[4-(trifluoromethyl)phenyl]pyridin-4-yl]methyl)-4-fluoro-1-[(4-fluorobenzene)sulfonyl]pyrrolidine-2-carboxamide] was 7 nM.
`C[C@H]1[C@H](F)C[C@@H](C(=O)NCc2ccnc(-c3cnc(C(F)(F)F)nc3)c2)N1S(=O)(=O)c1ccc(F)cc1` [Example 193, (2S,4R,5S)-4-fluoro-1-[(4-fluorobenzene)sulfonyl]-5-methyl-N-([2-[2-(trifluoromethyl)pyrimidin-5-yl]pyridin-4-yl]methyl)pyrrolidine-2-carboxamide]: the concentration for half-maximal inhibition (IC50) was 15 nM.
In the case of `O=C(NCc1cc(-c2cnc(C(F)(F)F)nc2)ncc1Cl)[C@@H]1C[C@@H](F)CN1S(=O)(=O)c1ccc(F)cc1` [Example 184, (2S,4R)—N-([5-chloro-2-[2-(trifluoromethyl)pyrimidin-5-yl]pyridin-4-yl]methyl)-4-fluoro-1-[(4-fluorobenzene)sulfonyl]pyrrolidine-2-carboxamide], the IC50 was found to be 10 nM.
Consider `COc1cnc(CNC(=O)[C@]2(C)C[C@@H](F)CN2S(=O)(=O)c2ccc(F)cc2)cc1-c1ccc(C(F)(F)F)nc1` [Example 109, (2S,4R)-4-fluoro-1-(4-fluorophenyl)sulfonyl-N-[[5-methoxy-4-[6-(trifluoromethyl)-3-pyridyl]-2-pyridyl]methyl]-2-methyl-pyrrolidine-2-carboxamide], for which the IC50 came out at 164 nM.
The value for `COc1cc(CNC(=O)[C@@H]2C[C@@H](F)CN2S(=O)(=O)c2ccc(F)cc2)cc(-c2cnc(C(F)(F)F)nc2)n1` [Example 188, (2S,4R)-4-fluoro-1-(4-fluorophenyl)sulfonyl-N-[[2-methoxy-6-[2-(trifluoromethyl)pyrimidin-5-yl]-4-pyridyl]methyl]pyrrolidine-2-carboxamide] was 8 nM; that for `Cc1cc(-c2cnc(C(F)(F)F)nc2)cc(CNC(=O)[C@@H]2C[C@@H](F)CN2S(=O)(=O)c2ccc(F)cc2)n1` [Example 48, (2S,4R)-4-fluoro-1-(4-fluorophenyl)sulfonyl-N-[[6-methyl-4-[2-(trifluoromethyl)pyrimidin-5-yl]-2-pyridyl]methyl]pyrrolidine-2-carboxamide] was 152 nM; that for `O=C(NCc1cc(N2CCC3(CC2)CC3)c(F)cn1)[C@@H]1C[C@@H](F)CN1S(=O)(=O)c1ccc(F)cc1` [Example 129, (2S,4R)—N-[[4-(6-azaspiro[2.5]octan-6-yl)-5-fluoro-2-pyridyl]methyl]-4-fluoro-1-(4-fluorophenyl)sulfonyl-pyrrolidine-2-carboxamide] was 99 nM.
In the case of `O=C(NCc1cc(F)cc(-c2csc(C(F)(F)F)n2)c1)[C@@H]1C[C@@H](F)CN1S(=O)(=O)c1ccc(F)cc1` [Example 173, (2S,4R)-4-fluoro-1-(4-fluorophenyl)sulfonyl-N-[[3-fluoro-5-[2-(trifluoromethyl)thiazol-4-yl]phenyl]methyl]pyrrolidine-2-carboxamide], the IC50 was 111 nM.
Take `O=C(NCc1ccnc(-c2ccc(C(F)(F)F)cc2O)c1)[C@@H]1C[C@@H](F)CN1S(=O)(=O)c1ccc(F)cc1` [Example 57, (2S,4R)-4-fluoro-1-(4-fluorophenyl)sulfonyl-N-[[2-[2-hydroxy-4-(trifluoromethyl)phenyl]-4-pyridyl]methyl]pyrrolidine-2-carboxamide]: the half-inhibitory concentration (IC50) is 5 nM.
For `O=C(NCc1cc(-c2ccc(C(F)(F)F)nc2)c(F)cn1)[C@@H]1[C@@H](F)CCN1S(=O)(=O)c1ccc(F)cc1` [Example 115, (2R,3S)-3-fluoro-1-(4-fluorophenyl)sulfonyl-N-[[5-fluoro-4-[6-(trifluoromethyl)-3-pyridyl]-2-pyridyl]methyl]pyrrolidine-2-carboxamide] the value was 13 nM.
The value for `O=C(NCc1cc(-c2ccc(C(F)(F)F)nc2)ncc1F)[C@@H]1C[C@@H](F)CN1S(=O)(=O)c1ccc(F)cc1` [Example 141, (2S,4R)-4-fluoro-N-((5-fluoro-6′-(trifluoromethyl)-2,3′-bipyridin-4-yl)methyl)-1-(4-fluorophenylsulfonyl)pyrrolidine-2-carboxamide] was 68 nM; that for `O=C(NCc1cc(-c2cnc(C(F)(F)F)nc2)ccc1Cl)[C@@H]1C[C@@H](F)CN1S(=O)(=O)c1ccc(F)cc1` [Example 158, (2S,4R)—N-[[2-chloro-5-[2-(trifluoromethyl)pyrimidin-5-yl]phenyl]methyl]-4-fluoro-1-(4-fluorophenyl)sulfonyl-pyrrolidine-2-carboxamide] was 4 nM; that for `O=C(NCc1cc(-c2ccc(C(F)(F)F)cn2)ccc1F)[C@@H]1C[C@@H](F)CN1S(=O)(=O)c1ccc(F)cc1` [Example 162, (2S,4R)-4-fluoro-N-(2-fluoro-5-(5-(trifluoromethyl)pyridin-2-yl)benzyl)-1-((4-fluorophenyl)sulfonyl)pyrrolidine-2-carboxamide] was 11 nM.
